Structures can show the parent of a compound that is named as a salt. Where two headings read alike, the source gives them in different places.
Target: T1, beta-amyloid 42 (Aβ42) (Homo sapiens, UniProt P05067)
T1 construct: Beta-amyloid 42 (Aβ42) was dissolved in dimethylsulfoxide (DMSO)
Test: Inhibitory effect on the formation of beta-amyloid fibrils in vitro (ThT fluorescence assay)
Type: biochemical
Conditions: for inhibition at 10 µM: read-out: % Inhibition (10 μM); for IC50: In vitro ThT analysis (Aβ42: 25 μM); for % inhibition against the beta-amyloid 42 formation compared with curcumin: Tables 1 to 6, relative to curcumin
Method: In order to investigate the inhibitory effect on the formation of beta-amyloid fibrils, the inventive compounds were examined as follows:
Beta-amyloid 42 (Aβ42) was dissolved in dimethylsulfoxide (DMSO) to form a […] Aβ42 stock solution. In addition, ThT (thioflavin T) was dissolved in distilled water to a concentration of 1 mM and subsequently diluted with 50 mM glycin buffer (pH 8.5) to yield a 5 μM ThT stock solution.
45 μL of PBS (phosphate buffer saline, pH 7.4) was added to each of a 96 well fluorescence microplate (white, F-bottom). 5 μL of the 250 μM Aβ42 stock solution was added to each well. The final concentration of each compound obtained in Examples was in a range of 10 to 0.001 μM by adding 2 μL of a solution, which is prepared by dissolving the subject compounds obtained in Examples in DMSO, to each well. At this time, the final concentration of Aβ42 in each well was 25 μM. The plate was then incubated at room temperature for 1 hr, and 150 μL of the 5 μM ThT stock solution was added to each well.
The fluorescence intensity of each well was determined with the multi label fluorescence counter (LS-55 Luminescence spectrometer, Perkin Elmer) at an excitation wavelength of 450 nm (excitation slit width: 10 nm) and an emission wavelength of 482 nm (emission slit width: 10 nm), while adjusting counting time to 1 second. The control group was prepared by adding PBS solution, Aβ42 and DMSO, without adding the inventive compound. % Inhibition on the formation of beta-amyloid fibrils was calculated in accordance with the following equation and IC5O was calculated by using GraphPad Prism version 4.03 Program.
% Inhibition=[1−(C−D)/(A−B)]×100 Equation 1%
A (control group): fluorescence intensity in a group treated with PBS solution, Aβ42, and DMSO
B (blank): fluorescence intensity in a group treated with PBS solution and DMSO
C (experimental group): fluorescence intensity in a group treated with PBS solution, Aβ42, DMSO, and the inventive compound
D (compensation value to the experimental group): fluorescence intensity in a group treated with PBS solution, DMSO, and the inventive compound

[1] = 10 μM compound, Aβ42 25 μM, experiment of Table 6
[2] = 10 μM compound, Aβ42 25 μM, experiment of Table 3
[3] = 10 μM compound, Aβ42 25 μM, experiment of Table 2
[4] = 10 μM compound, Aβ42 25 μM, experiment of Table 5
[5] = 10 μM compound, Aβ42 25 μM, experiment of Table 4
[6] = 10 μM compound, Aβ42 25 μM, experiment of Table 7

T1 sequence (P05067 672-713 limits assumed): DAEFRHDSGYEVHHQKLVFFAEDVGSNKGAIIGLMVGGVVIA

In the case of CNc1ccc(C=Cc2cc3cc(I)ccc3o2)cc1 [Compound 46, 5-iodo-2-(4-methylaminostyryl)benzofuran], the inhibition at 10 µM [1] is reported as 61%, the IC50 (experiment of Table 6) is reported as 1770 nM and the “% inhibition against the beta-amyloid 42 formation compared with curcumin” value (“% inhibition … with curcumin” below) is reported as “superior % inhibition”.
Compound CCN(CC)c1ccc(C=Cc2cc3ccc(OC)cc3o2)cc1 [Compound 57, 6-methoxy-2-(4-diethylaminostyryl)benzofuran] has an inhibition at 10 µM [2] of 62.8%.
In the case of COc1ccc2oc(C=Cc3ccc(N(C)C)cc3)cc2c1 [Compound 2, 5-Methoxy-2-(4-dimethylaminostyryl)benzofuran], the IC50 (experiment of Table 1) is reported as 810 nM.
For COc1ccc(C=Cc2cc3cc(C)ccc3o2)cc1OC [Compound 43, 5-methyl-2-(3,4-dimethoxystyryl)benzofuran], the inhibition at 10 µM [3] was 69.4% and the IC50 (experiment of Table 2) was 10500 nM.
COc1ccc2cc(C=Cc3ccc(N(C)C)c(OC)c3)oc2c1 [Compound 23, 6-methoxy-2-(3-methoxy-4-dimethylaminostyryl)benzofuran] was tested, and the IC50 (experiment of Table 1) was 528 nM and the “% inhibition … with curcumin” value was “superior % inhibition”.
CN(C)c1ccc(C=Cc2cc3ccc(F)cc3o2)cc1 [Compound 12, 6-fluoro-2-(4-dimethylaminostyryl)benzofuran] was tested, and the IC50 (experiment of Table 1) was 2190 nM.
Work on CNc1ccc(C=Cc2cc3cc(O)ccc3o2)cc1 [Compound 19, 5-hydroxy-2-(4-methylaminostyryl)benzofuran hydrochloride] yielded an IC50 (experiment of Table 1) of 2160 nM.
In the case of COc1ccc(C=Cc2cc3cc(OC)ccc3o2)cc1 [Compound 37, 5-methoxy-2-(4-methoxystyryl)benzofuran], the inhibition at 10 µM [3] is reported as 67.9%, the IC50 (experiment of Table 2) is reported as 707 nM and the “% inhibition … with curcumin” value is reported as “superior % inhibition”.
CNc1ccc(C=Cc2cc3ccc(O)cc3o2)cc1 [Compound 68, 6-hydroxy-2-(4-methylaminostyryl)benzofuran] showed an inhibition at 10 µM [4] of 61.9%.
CN(C)c1ccc(C=Cc2cc3ccc(I)cc3o2)cc1 [Compound 15, 6-iodo-2-(4-dimethylaminostyryl)benzofuran] gave an IC50 (experiment of Table 1) of 2800 nM.
Work on COc1ccc(C=Cc2cc3cc(Cl)ccc3o2)cc1 [Compound 33, 5-chloro-2-(4-methoxystyryl)benzofuran] yielded an inhibition at 10 µM [3] of 51.8% and an IC50 (experiment of Table 2) of over 100000 nM.
For CNc1ccc(C=Cc2cc3cc(OCCOCCOCCF)ccc3o2)cc1 [Compound 45, 5-(2-(2-(2-fluoroethoxy)ethoxy)ethoxy)-2-(4-methylaminostyryl)benzofuran], the inhibition at 10 µM [4] was 53.5%.
COc1ccc2cc(C=Cc3ccc(N)cc3)oc2c1 [Compound 20, 6-methoxy-2-(4-aminostyryl)benzofuran] gave an IC50 (experiment of Table 1) of 5440 nM.
Compound CNc1ccc(C=Cc2cc3cc(OC)c(OC)cc3o2)cc1OC [Compound 53, 5,6-dimethoxy-2-(3-methoxy-4-methylaminostyryl)benzofuran] has an inhibition at 10 µM [4] of 56.2%.
CN(C)c1ccc(C=Cc2cc3cc(F)ccc3o2)cc1 [Compound 5, 5-fluoro-2-(4-dimethylaminostyryl)benzofuran] gave an IC50 (experiment of Table 1) of 1980 nM.
In the case of COc1cc(/C=C/C(=O)CC(=O)/C=C/c2ccc(O)c(OC)c2)ccc1O [curcumin, reference compound], the inhibition at 10 µM [3] is reported as 92.1%, the inhibition at 10 µM [5] is reported as 79.7% and the inhibition at 10 µM [4] is reported as 67.8%. It also gave an inhibition at 10 µM [1] of 98.1%, an inhibition at 10 µM [6] of 76.4% and an inhibition at 10 µM of 78.3%.
CNc1ccc(C=Cc2cc3cc(Cl)ccc3o2)cc1OC [Compound 32, 5-chloro-2-(3-methoxy-4-methylaminostyryl)benzofuran] gave an inhibition at 10 µM [4] of 47.6%.
With CNc1ccc(C=Cc2cc3cc(Cl)ccc3o2)cc1 [Compound 30, 5-chloro-2-(4-methylaminostyryl)benzofuran] the inhibition at 10 µM [1] was 68.4%, the IC50 (experiment of Table 6) was 2170 nM and the “% inhibition … with curcumin” value was “superior % inhibition”.
For “5-methyl-2-(aminostyryl)benzofuran trifluoroacetate [Compound 39]”, the “% Inhibition (10 μM)” value [2] was 60.23%.
With COc1ccc(C=Cc2cc3cc(I)ccc3o2)cc1 [Compound 49, 5-iodo-2-(4-methoxystyryl)benzofuran] the inhibition at 10 µM [5] was 38% and the IC50 (experiment of Table 4) was 16800 nM.
CN(C)c1ccc(C=Cc2cc3ccc(Br)cc3o2)cc1 [Compound 14, 6-bromo-2-(4-dimethylaminostyryl)benzofuran] showed an IC50 (experiment of Table 1) of 1340 nM.
With CNc1ccc(/C=C/c2cc3cc(OC)ccc3o2)cc1 [hydrochloride of Ex. 17] the inhibition at 10 µM [1] was 74.1%, the IC50 (experiment of Table 6) was 661 nM and the “% inhibition … with curcumin” value was “superior % inhibition”.
For COc1ccc(C=Cc2cc3ccc(OC)cc3o2)cc1 [Compound 58, 6-methoxy-2-(4-methoxystyryl)benzofuran], the inhibition at 10 µM [2] was 57.2%.
With CN(C)c1ccc(C=Cc2cc3cc(Cl)ccc3o2)cc1 [Compound 6, 5-chloro-2-(4-dimethylaminostyryl)benzofuran] the IC50 (experiment of Table 1) was 199 nM and the “% inhibition … with curcumin” value was “superior % inhibition”.
For CN(C)c1ccc(/C=C/c2nc3ccccc3s2)cc1 [Comparative Example 2, 2-(4-dimethylaminophenylethenyl)benzothiazole, reference compound], the inhibition at 10 µM [6] was 25.7% and the IC50 (experiment of Table 7) was 31800 nM.
Nc1ccc(C=Cc2cc3cc(O)ccc3o2)cc1 [Compound 18, 5-hydroxy-2-(4-aminostyryl)benzofuran hydrochloride] was tested, and the IC50 (experiment of Table 1) was 2950 nM.
Work on CCN(CC)c1ccc(C=Cc2cc3ccc(O)cc3o2)cc1 [Compound 69, 6-hydroxy-2-(4-diethylaminostyryl)benzofuran] yielded an inhibition at 10 µM [4] of 42.2%.
For CCN(CC)c1ccc(C=Cc2cc3cc(I)ccc3o2)cc1 [Compound 47, 5-iodo-2-(4-diethylaminostyryl)benzofuran], the inhibition at 10 µM [4] was 63.3%, the IC50 (experiment of Table 5) was 1050 nM and the “% inhibition … with curcumin” value was “superior % inhibition”.
With CCN(CC)c1ccc(C=Cc2cc3cc(OC)c(OC)cc3o2)cc1 [Compound 52, 5,6-dimethoxy-2-(4-diethylaminostyryl)benzofuran] the inhibition at 10 µM [4] was 42.3%.
CNc1ccc(C=Cc2cc3ccc(OC)cc3o2)cc1 [Compound 21, 6-methoxy-2-(4-methylaminostyryl)benzofuran] showed an IC50 (experiment of Table 1) of 800 nM.
CNc1ccc(C=Cc2cc3cc(I)ccc3o2)cc1OC [Compound 48, 5-iodo-2-(3-methoxy-4-methylaminostyryl)benzofuran] was tested, and the inhibition at 10 µM [1] was 74.2%, the IC50 (experiment of Table 6) was 1050 nM and the “% inhibition … with curcumin” value was “superior % inhibition”.
Compound COc1ccc(C=Cc2cc3ccccc3o2)cc1 [Compound 27, 2-(4-methoxystyryl)benzofuran] has an inhibition at 10 µM [2] of 58.3%.
CNc1ccc(C=Cc2cc3ccc(C)cc3o2)cc1 [Compound 62, 6-methyl-2-(4-methylaminostyryl)benzofuran trifluoroacetate] gave an inhibition at 10 µM [2] of 46.5%.
With Nc1ccc(C=Cc2cc3ccc(O)cc3o2)cc1 [Compound 67, 6-hydroxy-2-(4-aminostyryl)benzofuran] the inhibition at 10 µM [4] was 60.2%.
Compound CCN(CC)c1ccc(C=Cc2cc3cc(Cl)ccc3o2)cc1 [Compound 31, 5-chloro-2-(4-diethylaminostyryl)benzofuran] has an inhibition at 10 µM [5] of 37.9% and an IC50 (experiment of Table 4) of 963 nM.
Compound COc1ccc2oc(C=Cc3ccc(N)cc3)cc2c1 [Compound 16, 5-methoxy-2-(4-aminostyryl)benzofuran] has an IC50 (experiment of Table 1) of 820 nM.
In the case of CNc1ccc(C=Cc2cc3ccc(OCCOCCOCCF)cc3o2)cc1 [Compound 66, 6-(2-(2-(2-fluoroethoxy)ethoxy)ethoxy)-2-(4-methylaminostyryl)benzofuran], the inhibition at 10 µM [4] is reported as 61.7%.
With COc1cc2cc(C=Cc3ccc(N(C)C)cc3)oc2cc1OC [Compound 51, 5,6-dimethoxy-2-(4-dimethylaminostyryl)benzofuran] the inhibition at 10 µM [4] was 29.2%.
In the case of COc1ccc(C=Cc2cc3cc(Cl)ccc3o2)cc1OC [Compound 34, 5-chloro-2-(3,4-dimethoxystyryl)benzofuran], the inhibition at 10 µM [3] is reported as 72.5%, the IC50 (experiment of Table 2) is reported as 181 nM and the “% inhibition … with curcumin” value is reported as “superior % inhibition”.
COc1ccc2oc(C=Cc3ccc(OC)c(OC)c3)cc2c1 [Compound 38, 5-methoxy-2-(3,4-dimethoxystyryl)benzofuran] was tested, and the inhibition at 10 µM [3] was 81.1% and the IC50 (experiment of Table 2) was 1560 nM.
